IC50 data for nine compounds are collected here from patent US20260347372A1, “SMALL MOLECULE INHIBITORS OF KRAS G12D MUTANT” (MERCK SHARP & DOHME LLC, priority 2023, published 2026).

Where only a bound is given, the exact number is not on record here.

For one assay, the target named is KRAS G12D (Homo sapiens, UniProt P01116, G12D). The experiment in a line: SOS-catalyzed nucleotide exchange assay, KRAS G12D (Procedure A). In kind it is biochemical. The following applies: guanine nucleotide exchange (GNE). The method in brief:
(§1)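 Preformed TR-FRET complex of biotinylated KRAS (G12C carries C51S/C80L/C118S; others native sequence), Bodipy-GDP and Tb-streptavidin preincubated with compound 60 min at room temperature. Exchange started with human SOS plus 3 mM GTP for 60 min (G13D 30 min). Final RAS/SOS: G12C 3/40 nM; WT, G12D 1/40 nM; G13D 1.25/0 nM. 520/495 nm ratio normalised, fitted to four-parameter logistic.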

The target in another assay is KRAS WT (Homo sapiens, UniProt P01116). As to the kind of experiment: SOS-catalyzed nucleotide exchange assay, KRAS WT (Procedure A). It is filed as biochemical. The following applies: GNE. In short, it runs like this: as §1
The target in a further assay is KRAS G12V (Homo sapiens, UniProt P01116, G12V). As to the kind of experiment: SOS-catalyzed nucleotide exchange assay, KRAS G12V (Procedure A). It is filed as biochemical. The following applies: GNE. In short, it runs like this: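 Biotinylated KRAS G12V was loaded with Bodipy-GDP alongside Terbium-streptavidin to form a TR-FRET complex, which was preincubated with compounds for 60 minutes in 384-well plates. Human SOS protein and unlabeled GTP were then added for 90 minutes, giving final concentrations of 1.25 nM KRAS-G12V, 160 nM SOS and 3 mM GTP. The 520/495 nm emission ratio was read on an Envision.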

The next assay deals with T1, PANC08.13 cells (Homo sapiens, UniProt P01116, G12D).
T1 construct: p-ERK/total ERK AlphaSureFire read-out
As to the kind of experiment: Cellular phospho-ERK assay, PANC08.13 cells (KRAS G12D). In kind it is cell-based. The settings on record: 2 hours, read-out: PANCO 813 pERK IC50. Here is the method: Procedure for Cellular Phospho-ERK Assay in KRAS Wild Type and Mutant (G12D, G12V) Cell Lines
PANC08.13 cells (ATCC® CRL-2551™), containing homozygous KRAS-G12D activating mutation, were cultured in growth medium made of RPMI1640-GlutaMAX™-I (ThermoFisher Scientific 61870) containing 15% heat inactivated fetal bovine serum (ThermoFisher Scientific 10091148)). AsPC-1 cells (ATCC® CRL-1682™), containing homozygous KRAS-G12D activating mutation, were cultured in T150 flask in growth medium (RPMI medium 1640-GlutaMAX™-I (ThermoFisher Scientific 61870) containing 10% fetal bovine serum (ThermoFisher Scientific 10091148)).
Cells for the assay were harvested in growth medium after TrypLE (ThermoFisher scientific 12604021) digestion and were seeded in a 384-well collagen coated cell culture plate (Corning 356702) at a density of 10,000-15,000 cells/20 μL/well, and incubated at 37° C., 5% CO2 overnight. The compound (with 10 mM stock concentration) dose-response titrations were prepared [30 μM final ERK detection assay concentration and 1:3 dilutions, 10-point dose response] and appropriate amounts (270 nL) of test compounds were dispensed in a 384-well intermediate plate using an Echo 550 liquid handler. 30 μL/well of RPMI medium 1640-GlutaMAX™-I was added to the intermediate plate and the contents of the intermediate plate (10 μL/well) were then transferred to the 384-well collagen coated cell culture plate, which was incubated at 37° C., 5% CO2 for 2 hours. After removal of medium from the collagen coated cell culture plate, cells were lysed in lysis buffer from Alpha SureFire® Ultra™ Multiplex p-ERK and total ERK assay kit (PerkinElmer MPSU-PTERK) containing Halt™ Protease and Phosphatase inhibitor cocktail (ThermoFisher Scientific 78446) at room temperature with constant shaking at 300 rpm for 30 minutes. The cell lysates were then transferred to an OptiPlate-384 plate (PerkinElmer 6005620), and the phosphorylation of ERK (p-ERK) and total ERK levels were detected by Alpha SureFire® Ultra™ Multiplex p-EEK kit and total ERK assay kit (PerkinElmer MPSU-PTERK) following the manufacturer's protocol. Assay plates were read on a EnVision Multimode Plate Reader (PerkinElmer), and the ratio of p-ERK vs. total ERK in each well was used as the final readout. Dose response curves were analyzed using a 4-parameter logistic model to calculate IC50 values using Spotfire software.

The next assay addresses KRAS G12C (Homo sapiens, UniProt P01116, C118S/C51S/C80L/G12C). The experiment in a line: SOS-catalyzed nucleotide exchange assay, KRAS G12C (Procedure A). In kind it is biochemical. The following applies: GNE. The method in brief:
as §1

The target in another assay is KRAS G13D (Homo sapiens, UniProt P01116, G13D). The experiment in a line: SOS-catalyzed nucleotide exchange assay, KRAS G13D (Procedure A). In kind it is biochemical. The following applies: GNE. The method in brief: as §1
The target of another assay is HRAS (Homo sapiens, UniProt P01112). The experiment in a line: SOS-catalyzed nucleotide exchange assay, HRAS (Procedure A). It is filed as biochemical. The following applies: GNE. The method in brief: (§2)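 Compounds were preincubated 60 min with a biotinylated RAS·Bodipy-GDP/Tb-streptavidin TR-FRET complex, and exchange was started with human SOS plus 3 mM GTP at RT. RAS/SOS: G12C 3 nM/40 nM, WT and G12D 1 nM/40 nM, all 60 min; G13D 1.25 nM/0 nM, 30 min. 520/495 ratio normalized to DMSO and saturating inhibitor, four-parameter fit.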

A further assay has as its target NRAS (Homo sapiens, UniProt P01111). The experiment in a line: SOS-catalyzed nucleotide exchange assay, NRAS (Procedure A). It is filed as biochemical. The settings on record: GNE. In short, it runs like this:
as §2

The target of the next assay is T2, AsPC-1 cells (Homo sapiens, UniProt P01116, G12D).
T2 construct: p-ERK/total ERK AlphaSureFire read-out
The experiment in a line: Cellular phospho-ERK assay, AsPC-1 cells (KRAS G12D). It is filed as cell-based. The following applies: 2 hours, read-out: AsPC1 pERK IC50. In short, it runs like this: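 PANC08.13 or AsPC-1 cells (homozygous KRAS G12D) were seeded overnight, then treated for 2 h at 37 °C with a 10-point 1:3 titration from 30 μM. Lysates were assayed by AlphaLISA SureFire for p-ERK and total ERK. IC50 came from a 4-parameter fit of the p-ERK/total ERK ratio.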

Sequence of HRAS (P01112 with tags, fused parts or gaps): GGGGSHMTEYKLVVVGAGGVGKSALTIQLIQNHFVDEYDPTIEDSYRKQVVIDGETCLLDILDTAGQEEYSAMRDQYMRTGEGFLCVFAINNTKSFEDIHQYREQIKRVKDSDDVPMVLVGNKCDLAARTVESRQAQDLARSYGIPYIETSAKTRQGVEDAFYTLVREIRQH
Sequence of KRAS G12D (P01116 with tags, fused parts or gaps isoform P01116-2 G12D): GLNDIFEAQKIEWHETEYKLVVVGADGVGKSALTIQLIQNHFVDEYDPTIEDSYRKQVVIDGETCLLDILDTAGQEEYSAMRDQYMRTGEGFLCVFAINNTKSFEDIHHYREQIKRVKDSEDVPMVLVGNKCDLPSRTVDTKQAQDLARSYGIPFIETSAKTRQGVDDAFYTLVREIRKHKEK
Sequence of KRAS G12C (P01116 with tags, fused parts or gaps isoform P01116-2 G12C/C51S/C80L/C118S): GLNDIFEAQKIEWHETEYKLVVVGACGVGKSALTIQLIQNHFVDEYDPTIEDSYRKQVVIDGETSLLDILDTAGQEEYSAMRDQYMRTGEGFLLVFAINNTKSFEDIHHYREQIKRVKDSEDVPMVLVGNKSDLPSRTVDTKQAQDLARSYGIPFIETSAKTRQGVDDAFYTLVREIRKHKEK
Sequence of KRAS G13D (P01116 with tags, fused parts or gaps isoform P01116-2 G13D): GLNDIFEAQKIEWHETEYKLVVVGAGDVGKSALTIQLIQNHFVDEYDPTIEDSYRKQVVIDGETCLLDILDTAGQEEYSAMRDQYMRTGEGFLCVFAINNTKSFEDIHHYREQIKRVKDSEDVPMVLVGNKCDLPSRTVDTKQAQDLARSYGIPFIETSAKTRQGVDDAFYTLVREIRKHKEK
Sequence of KRAS WT (P01116 with tags, fused parts or gaps isoform P01116-2): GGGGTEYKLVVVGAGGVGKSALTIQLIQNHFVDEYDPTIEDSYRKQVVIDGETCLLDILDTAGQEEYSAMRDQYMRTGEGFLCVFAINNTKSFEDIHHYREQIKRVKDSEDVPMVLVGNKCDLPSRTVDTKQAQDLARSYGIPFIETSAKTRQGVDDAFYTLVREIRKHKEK
Sequence of KRAS G12V (P01116 with tags, fused parts or gaps isoform P01116-2 G12V): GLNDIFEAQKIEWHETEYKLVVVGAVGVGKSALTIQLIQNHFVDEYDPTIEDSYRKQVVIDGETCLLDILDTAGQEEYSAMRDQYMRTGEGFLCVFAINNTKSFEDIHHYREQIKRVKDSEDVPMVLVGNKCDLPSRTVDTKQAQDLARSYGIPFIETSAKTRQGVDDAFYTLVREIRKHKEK
T2 sequence (P01116 1-188 isoform P01116-2 G12D): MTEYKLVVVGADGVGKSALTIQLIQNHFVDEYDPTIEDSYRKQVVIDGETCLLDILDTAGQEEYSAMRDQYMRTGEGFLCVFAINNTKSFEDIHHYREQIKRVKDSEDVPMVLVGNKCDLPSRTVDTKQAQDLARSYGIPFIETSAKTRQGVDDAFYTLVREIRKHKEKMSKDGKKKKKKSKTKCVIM
Sequence of NRAS (P01111 with tags, fused parts or gaps): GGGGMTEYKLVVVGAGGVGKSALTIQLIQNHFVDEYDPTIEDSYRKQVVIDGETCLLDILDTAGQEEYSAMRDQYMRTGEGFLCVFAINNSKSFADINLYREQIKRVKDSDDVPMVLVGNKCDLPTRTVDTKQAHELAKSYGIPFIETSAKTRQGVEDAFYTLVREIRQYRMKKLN
T1 sequence (P01116 1-188 isoform P01116-2 G12D): as the sequence (P01116 1-188 isoform P01116-2 G12D) above

In general, IC50 refers to the point on the concentration scale where inhibition reaches its midpoint. Regarding `N#Cc1c(N)sc2c(F)ccc(-c3nccc4c3sc3nc(OC[C@]5(CO)CC5(F)F)nc(N5CC6CCC(C5)N6)c34)c12` [Ex-60, 4-(4-(3,8-diazabicyclo[3.2.1]octan-3-yl)-2-(((R)-2,2-difluoro-1-(hydroxymethyl)cyclopropyl)methoxy)pyrido[4′,3′:4,5]thieno[2,3-d]pyrimidin-8-yl)-2-amino-7-fluorobenzo[b]thiophene-3-carbonitrile], the IC50 against KRAS G12D was 2690 nM; against KRAS WT, above 11.1 µM; on KRAS G12V, above 11.1 µM; on PANC08.13 cells, 10 µM.

Take `N#Cc1c(N)sc2c(F)cc(F)c(-c3nccc4c3sc3nc(OC[C@]5(CO)CC5(F)F)nc(N5C[C@H]6CC[C@@H](C5)N6)c34)c12` [Ex-61, 4-(4-((1R,5S)-3,8-diazabicyclo[3.2.1]octan-3-yl)-2-(((R)-2,2-difluoro-1-(hydroxymethyl)cyclopro-pyl)methoxy)pyrido[4′,3′: 4,5]thieno[2,3-d]pyrimidin-8-yl)-2-amino-5,7-difluorobenzo[b]thiophene-3-carbonitrile]: the half-inhibitory concentration (IC50) on KRAS G12D is 859 nM; against KRAS WT, above 11.1 µM; at KRAS G12V, above 11.1 µM; on PANC08.13 cells it was 7.35 µM.

With `F[C@H]1CN2CCC[C@@]2(COc2nc(N3C[C@H]4CC[C@@H](C3)N4)c3c(n2)sc2c(-c4c(C5CC5)c(Cl)cc5[nH]ncc45)nccc23)C1` [Ex-20, 4-((1R,5S)-3,8-diazabicyclo[3.2.1]octan-3-yl)-8-(6-chloro-5-cyclopropyl-1H-indazol-4-yl)-2-(((2R,7aS)-2-fluorotetrahydro-1H-pyrrolizin-7a(5H)-yl)methoxy)pyrido[4′,3′:4,5]thieno[2,3-d]pyrimidine], the 50% inhibitory concentration (IC50) at KRAS G12D is 8.05 nM; against KRAS WT it was 1.16 µM; at KRAS G12C it was 412 nM; at KRAS G12V it was 1.24 µM; at KRAS G13D, 287 nM; against HRAS, above 11.1 µM. For the same compound, the results for the IC50 at NRAS and on AsPC-1 cells were above 11.1 µM and 296 nM, respectively.

For the compound `Cc1cc2[nH]ncc2c(-c2nccc3c2sc2nc(OCC4(S(C)(=O)=O)CC4)nc(N4C[C@H]5CC[C@@H](C4)N5)c23)c1C(F)(F)F` [Ex-33, 4-((1R,5S)-3,8-diazabicyclo[3.2.1]octan-3-yl)-8-(6-methyl-5-(trifluoromethyl)-1H-indazol-4-yl)-2-((1-(methylsulfonyl)cyclopropyl)meth-oxy)pyrido[4′,3′:4,5]thieno[2,3-d]pyrimidine], the IC50 was 7970 nM against KRAS G12D; above 11.1 µM at KRAS WT; above 11100 nM against KRAS G12C; above 11.1 µM against KRAS G12V; above 11100 nM on KRAS G13D; above 11.1 µM against HRAS. In addition, the IC50 was above 11.1 µM on NRAS and 20200 nM on AsPC-1 cells.

With `Fc1ccc2cc3[nH]ncc3c(-c3nccc4c3sc3nc(OC[C@@]56CCCN5C[C@H](F)C6)nc(N5C[C@H]6CC[C@@H](C5)N6)c34)c2c1Cl` [Ex-59, 4-((1R,5S)-3,8-diazabicyclo[3.2.1]octan-3-yl)-8-(5-chloro-6-fluoro-1H-benzo[f]indazol-4-yl)-2-(((2R,7aS)-2-fluorotetrahydro-1H-pyrrolizin-7a(5H)-yl)methoxy)pyrido[4′,3′:4,5]thi-eno[2,3-d]pyrimidine], the IC50 at KRAS G12D was 9.25 nM; against KRAS WT, 1.65 µM; against KRAS G12C it was 182 nM; on KRAS G12V, 1.37 µM; at KRAS G13D, 265 nM; against HRAS it was above 11.1 µM. Also, the concentration for half-maximal inhibition (IC50) was above 11.1 µM on NRAS and 217 nM on AsPC-1 cells.

On to `Cc1cc2[nH]ncc2c(-c2nccc3c2sc2nc(OC[C@@]45CCCN4C[C@H](F)C5)nc(N4CC5CC(C4)N5)c23)c1C(F)(F)F` [Ex-67, 4-(3,6-diazabicyclo[3.1.1]heptan-3-yl)-2-(((2R,7aS)-2-fluorotetrahydro-1H-pyrrolizin-7a(5H)-yl)methoxy)-8-(6-methyl-5-(trifluoromethyl)-1H-indazol-4-yl)pyrido[4′,3′:4,5]thieno[2,3-d]pyrimidine], for which the concentration for half-maximal inhibition (IC50) is 13.1 nM against KRAS G12D; 0.856 µM against KRAS WT; 265 nM on KRAS G12C; 0.672 µM against KRAS G12V; 323 nM against KRAS G13D; above 11.1 µM against HRAS. Also, the results for the IC50 against NRAS and on AsPC-1 cells were above 11.1 µM and 699 nM, respectively.

As for `Cc1cc2[nH]ncc2c(-c2nccc3c2sc2nc(OC[C@@]45CCCN4C[C@H](F)C5)nc(N4C[C@@H]5C[C@H]4CN5)c23)c1C(F)(F)F` [Ex-69, 4-((1S,4S)-2,5-diazabicyclo[2.2.1]heptan-2-yl)-2-(((2R,7aS)-2-fluorotetrahydro-1H-pyrrolizin-7a(5H)-yl)methoxy)-8-(6-methyl-5-(trifluoromethyl)-1H-indazol-4-yl)pyrido[4′,3′:4,5]thieno[2,3-d]pyrimidine], the 50% inhibitory concentration (IC50) was 35.6 nM on KRAS G12D; 4.91 µM on KRAS WT; 1740 nM at KRAS G12C; above 11.1 µM on KRAS G12V; 1210 nM on KRAS G13D; above 11.1 µM at HRAS. Also, the figures for the concentration for half-maximal inhibition (IC50) on NRAS and on AsPC-1 cells were above 11.1 µM and 1540 nM, respectively.

On to `Cc1cc2[nH]ncc2c(-c2nccc3c2sc2nc(OCC4(C)CNC(=O)C4)nc(N4C[C@H]5CC[C@@H](C4)N5)c23)c1C(F)(F)F` (stereo partly drawn) [Ex-37, 4-(((4-((1R,5S)-3,8-diazabicyclo[3.2.1]octan-3-yl)-8-(6-methy1-5-(trifluoromethyl)-1H-indazol-4-yl)pyrido[4′,3′:4,5]thieno[2,3-d]pyrimidin-2-yl)oxy)methyl)-4-methylpyrrolidin-2-one], for which the concentration for half-maximal inhibition (IC50) is 1280 nM at KRAS G12D; above 11.1 µM at KRAS WT; above 11100 nM against KRAS G12C; above 11.1 µM on KRAS G12V; above 11100 nM at KRAS G13D; above 11.1 µM against HRAS. Also, the IC50 against NRAS is above 11.1 µM; at AsPC-1 cells it was above 30000 nM.

In the case of `Cc1cc2[nH]ncc2c(-c2nccc3c2sc2nc(OC[C@@]45CCCN4C[C@H](F)C5)nc(NCC4(N(C)C)CCC4)c23)c1C(F)(F)F` [Ex-74, N-((1-(dimethylamino)cyclobutyl)methyl)-2-(((2R,7aS)-2-fluorotetrahydro-1H-pyrrolizin-7a(5H)-yl)methoxy)-8-(6-methyl-5-(trifluoromethyl)-1H-indazol-4-yl)pyrido[4′,3′:4,5]thieno[2,3-d]pyrimidin-4-amine], the IC50 was 1300 nM at KRAS G12D; above 11.1 µM against KRAS WT; above 11100 nM against KRAS G12C; above 11.1 µM on KRAS G12V; 2880 nM at KRAS G13D; above 11.1 µM against HRAS. The half-maximal inhibitory concentration (IC50) at NRAS was above 11.1 µM; on AsPC-1 cells, 12100 nM.
